Experimental data reported in patent US9028845B2, “Chimeric immunomodulatory compounds and methods of using the same-IV” (Dynavax Technologies Corporation, priority 2001, dated 2015).

Test system: human PBMCs
Assay: Human PBMC cytokine response assay (IFN-γ and IFN-α in cell-free medium by ELISA), with or without cPLGA;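 on IFN-α (pg/ml) mean: 20 µg/mL compound for 24 hours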;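 on IFN-γ (pg/ml) mean: 20 µg/mL compound for 24 hours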
Type: cell-based
[1] = Donor 5, 20 μg/ml (mixtures: 20 μg/ml total), 24 h
[2] = Donor 6, 20 μg/ml (mixtures: 20 μg/ml total), 24 h
[3] = Table 24, mean of donors 28234-28237
[4] = Table 25, mean of donors 28250-28253
[5] = donor 28066, 20 ug/ml, 24 h, + PLGA = premixed with 100 μg/ml cPLGA
[6] = donor 28067, 20 ug/ml, 24 h, + PLGA = premixed with 100 μg/ml cPLGA
[7] = donor 28068, 20 ug/ml, 24 h, + PLGA = premixed with 100 μg/ml cPLGA
[8] = mean of Donors 1-2, 20 μg/ml, 24 h
[9] = mean of Donors 3-4, 20 μg/ml, 24 h
[10] = mean of Donors 5-6, 20 μg/ml (mixtures: 20 μg/ml total), 24 h
[11] = mean of Donors 7-8, 20 μg/ml, 24 h
[12] = mean of Donors 9-12, 20 μg/ml, 24 h
[13] = mean of donors 110, 112, 119, 120, Table 14
[14] = mean of donors 28057-28060, Table 16
[15] = mean of donors 28065-28068, 20 ug/ml, 24 h, + PLGA = premixed with 100 μg/ml cPLGA
[16] = mean of donors 28185-28188, Table 15
[17] = mean of donors 28218-28221, 20 μg/ml, 24 h

5′-TGACTGTGAACGTTCGAGATGA-3′ (SEQ ID NO: 2) [Compound P-6, reference compound]
IFN-α (pg/ml) Donor 1 (Donor 1, 20 μg/ml, 24 h): 401 pg/mL
IFN-γ (pg/ml) Donor 1 (Donor 1, 20 μg/ml, 24 h): 2180 pg/mL
IFN-α (pg/ml) Donor 2 (Donor 2, 20 μg/ml, 24 h): 39 pg/mL
IFN-γ (pg/ml) Donor 2 (Donor 2, 20 μg/ml, 24 h): 669 pg/mL
IFN-α (pg/ml) Donor 3 (Donor 3, 20 μg/ml, 24 h): 28 pg/mL
IFN-γ (pg/ml) Donor 3 (Donor 3, 20 μg/ml, 24 h): 99 pg/mL
IFN-α (pg/ml) Donor 4 (Donor 4, 20 μg/ml, 24 h): 106 pg/mL
IFN-γ (pg/ml) Donor 4 (Donor 4, 20 μg/ml, 24 h): 223 pg/mL
IFN-α (pg/ml) Donor 5 [1]: 54 pg/mL
IFN-γ (pg/ml) Donor 5 [1]: 73 pg/mL
IFN-α (pg/ml) Donor 6 [2]: 482 pg/mL
IFN-γ (pg/ml) Donor 6 [2]: 1170 pg/mL
IFN-α (pg/ml) Donor 7 (Donor 7, 20 μg/ml, 24 h): 4 pg/mL
IFN-γ (pg/ml) Donor 7 (Donor 7, 20 μg/ml, 24 h): 15 pg/mL
IFN-α (pg/ml) Donor 8 (Donor 8, 20 μg/ml, 24 h): 59 pg/mL
IFN-γ (pg/ml) Donor 8 (Donor 8, 20 μg/ml, 24 h): 367 pg/mL
IFN-α Donor 9 (Donor 9, 20 μg/ml, 24 h): 12
IFN-γ Donor 9 (Donor 9, 20 μg/ml, 24 h): 66
IFN-α Donor 10 (Donor 10, 20 μg/ml, 24 h): 28
IFN-γ Donor 10 (Donor 10, 20 μg/ml, 24 h): 20
IFN-α Donor 11 (Donor 11, 20 μg/ml, 24 h): 12
IFN-γ Donor 11 (Donor 11, 20 μg/ml, 24 h): 72
IFN-α Donor 12 (Donor 12, 20 μg/ml, 24 h): 12
IFN-γ Donor 12 (Donor 12, 20 μg/ml, 24 h): 23
IFN-α (Example 58, 0.8 ug/ml, donor 1): 52 pg/mL
IFN-α (Example 58, 0.8 ug/ml, donor 2): 52 pg/mL
IFN-α (Example 58, 0.8 ug/ml, donor 3): 52 pg/mL
IFN-α (Example 58, 0.8 ug/ml, donor 4): 52 pg/mL
IFN-α mean (Example 58, 0.8 ug/ml, mean of four individuals): 52 pg/mL
IFN-α (Example 58, 4 ug/ml, donor 1): 115 pg/mL
IFN-α (Example 58, 4 ug/ml, donor 2): 52 pg/mL
IFN-α (Example 58, 4 ug/ml, donor 3): 52 pg/mL
IFN-α (Example 58, 4 ug/ml, donor 4): 65 pg/mL
IFN-α mean (Example 58, 4 ug/ml, mean of four individuals): 71 pg/mL
IFN-α (Example 58, 20 ug/ml, donor 1): 116 pg/mL
IFN-α (Example 58, 20 ug/ml, donor 2): 64 pg/mL
IFN-α (Example 58, 20 ug/ml, donor 3): 52 pg/mL
IFN-α (Example 58, 20 ug/ml, donor 4): 52 pg/mL
IFN-α mean (Example 58, 20 ug/ml, mean of four individuals): 71 pg/mL
IFN-α (Example 59, 0.8 ug/ml, donor 48): 102 pg/mL
IFN-α (Example 59, 0.8 ug/ml, donor 177): 102 pg/mL
IFN-α (Example 59, 0.8 ug/ml, donor 272): 102 pg/mL
IFN-α (Example 59, 0.8 ug/ml, donor 273): 102 pg/mL
IFN-α mean (Example 59, 0.8 ug/ml, mean of four donors): 102 pg/mL
IFN-α (Example 59, 4 ug/ml, donor 48): 102 pg/mL
IFN-α (Example 59, 4 ug/ml, donor 177): 245 pg/mL
IFN-α (Example 59, 4 ug/ml, donor 272): 102 pg/mL
IFN-α (Example 59, 4 ug/ml, donor 273): 102 pg/mL
IFN-α mean (Example 59, 4 ug/ml, mean of four donors): 138 pg/mL
IFN-α (Example 59, 20 ug/ml, donor 48): 256 pg/mL
IFN-α (Example 59, 20 ug/ml, donor 177): 323 pg/mL
IFN-α (Example 59, 20 ug/ml, donor 272): 102 pg/mL
IFN-α (Example 59, 20 ug/ml, donor 273): 102 pg/mL
IFN-α mean (Example 59, 20 ug/ml, mean of four donors): 196 pg/mL
IFN-α (Table 9, donor 28089): 0 pg/mL
IFN-γ (Table 9, donor 28089): 84 pg/mL
IFN-α (Table 9, donor 28090): 62 pg/mL
IFN-γ (Table 9, donor 28090): 255 pg/mL
IFN-α (Table 9, donor 28098): 105 pg/mL
IFN-γ (Table 9, donor 28098): 745 pg/mL
IFN-α (Table 9, donor 28099): 105 pg/mL
IFN-γ (Table 9, donor 28099): 125 pg/mL
IFN-α mean (Table 9, mean of donors): 68 pg/mL
IFN-γ mean (Table 9, mean of donors): 302 pg/mL
IFN-α (Table 10, donor 28042): 27 pg/mL
IFN-γ (Table 10, donor 28042): 495 pg/mL
IFN-α (Table 10, donor 28043): 85 pg/mL
IFN-γ (Table 10, donor 28043): 1189 pg/mL
IFN-α (Table 10, donor 28044): 36 pg/mL
IFN-γ (Table 10, donor 28044): 925 pg/mL
IFN-α (Table 10, donor 28045): 21 pg/mL
IFN-γ (Table 10, donor 28045): 212 pg/mL
IFN-α mean (Table 10, mean of donors): 42 pg/mL
IFN-γ mean (Table 10, mean of donors): 705 pg/mL
IFN-α (Table 11, donor 28042): 9 pg/mL
IFN-γ (Table 11, donor 28042): 324 pg/mL
IFN-α (Table 11, donor 28043): 34 pg/mL
IFN-γ (Table 11, donor 28043): 1036 pg/mL
IFN-α (Table 11, donor 28044): 22 pg/mL
IFN-γ (Table 11, donor 28044): 529 pg/mL
IFN-γ (Table 11, donor 28045): 653 pg/mL
IFN-α mean (Table 11, mean of donors): 43 pg/mL
IFN-γ mean (Table 11, mean of donors): 636 pg/mL
IFN-α (Table 13, donor 28156): 52 pg/mL
IFN-γ (Table 13, donor 28156): 1132 pg/mL
IFN-α (Table 13, donor 28157): 484 pg/mL
IFN-γ (Table 13, donor 28157): 872 pg/mL
IFN-α (Table 13, donor 28158): 7 pg/mL
IFN-γ (Table 13, donor 28158): 207 pg/mL
IFN-α (Table 13, donor 28159): 32 pg/mL
IFN-γ (Table 13, donor 28159): 231 pg/mL
IFN-α mean (Table 13, mean of donors): 144 pg/mL
IFN-γ mean (Table 13, mean of donors): 611 pg/mL
IFN-α (Table 24, donor 28234): 58 pg/mL
IFN-γ (Table 24, donor 28234): 15 pg/mL
IFN-α (Table 24, donor 28235): 16 pg/mL
IFN-γ (Table 24, donor 28235): 52 pg/mL
IFN-α (Table 24, donor 28236): 16 pg/mL
IFN-γ (Table 24, donor 28236): 51 pg/mL
IFN-α (Table 24, donor 28237): 74 pg/mL
IFN-γ (Table 24, donor 28237): 1167 pg/mL
IFN-α mean [3]: 41 pg/mL
IFN-γ mean [3]: 321 pg/mL
IFN-a (Table 25, donor 28250): 16 pg/mL
IFN-a (Table 25, donor 28251): 16 pg/mL
IFN-g (Table 25, donor 28251): 18 pg/mL
IFN-a (Table 25, donor 28252): 16 pg/mL
IFN-g (Table 25, donor 28252): 34 pg/mL
IFN-a (Table 25, donor 28253): 16 pg/mL
IFN-g (Table 25, donor 28253): 37 pg/mL
IFN-a mean [4]: 16 pg/mL
IFN-g mean [4]: 52 pg/mL
IFN-α (donor 110, Table 14): 50 pg/mL
IFN-γ (donor 110, Table 14): 1508 pg/mL
IFN-α (donor 112, Table 14): 172 pg/mL
IFN-γ (donor 112, Table 14): 344 pg/mL
IFN-α (donor 119, Table 14): 234 pg/mL
IFN-γ (donor 119, Table 14): 144 pg/mL
IFN-α (donor 120, Table 14): 72 pg/mL
IFN-γ (donor 120, Table 14): 104 pg/mL
IFN-α (donor 28057, Table 16): 621 pg/mL
IFN-γ (donor 28057, Table 16): 83 pg/mL
IFN-α (donor 28058, Table 16): 396 pg/mL
IFN-γ (donor 28058, Table 16): 103 pg/mL
IFN-α (donor 28059, Table 16): 145 pg/mL
IFN-γ (donor 28059, Table 16): 1230 pg/mL
IFN-α (donor 28060, Table 16): 123 pg/mL
IFN-γ (donor 28060, Table 16): 85 pg/mL
IFN-γ (pg/ml) 28065 (donor 28065 (high background), 20 ug/ml, 24 h, + PLGA = premixed with 100 μg/ml cPLGA, 1000 = outside assay limits): 439 pg/mL
IFN-α (pg/ml) 28065 (donor 28065, 20 ug/ml, 24 h, + PLGA = premixed with 100 μg/ml cPLGA): 14 pg/mL
IFN-α (pg/ml) 28066 [5]: 17 pg/mL
IFN-γ (pg/ml) 28066 [5]: 12 pg/mL
IFN-α (pg/ml) 28067 [6]: 45 pg/mL
IFN-γ (pg/ml) 28067 [6]: 28 pg/mL
IFN-α (pg/ml) 28068 [7]: 126 pg/mL
IFN-γ (pg/ml) 28068 [7]: 906 pg/mL
IFN-a (donor 28185, Table 15): 120 pg/mL
IFN-g (donor 28185, Table 15): 205 pg/mL
IFN-a (donor 28186, Table 15): 41 pg/mL
IFN-g (donor 28186, Table 15): 17 pg/mL
IFN-a (donor 28187, Table 15): 4 pg/mL
IFN-g (donor 28187, Table 15): 148 pg/mL
IFN-a (donor 28188, Table 15): 4 pg/mL
IFN-g (donor 28188, Table 15): 8 pg/mL
IFN-a (pg/ml) 28218 (donor 28218, 20 μg/ml, 24 h): 32 pg/mL
IFN-g (pg/ml) 28218 (donor 28218, 20 μg/ml, 24 h): 13 pg/mL
IFN-a (pg/ml) 28219 (donor 28219, 20 μg/ml, 24 h): 32 pg/mL
IFN-g (pg/ml) 28219 (donor 28219, 20 μg/ml, 24 h): 7 pg/mL
IFN-a (pg/ml) 28220 (donor 28220, 20 μg/ml, 24 h): 32 pg/mL
IFN-g (pg/ml) 28220 (donor 28220, 20 μg/ml, 24 h): 25 pg/mL
IFN-a (pg/ml) 28221 (donor 28221, 20 μg/ml, 24 h): 32 pg/mL
IFN-g (pg/ml) 28221 (donor 28221, 20 μg/ml, 24 h): 141 pg/mL
IFN-α (pg/ml) mean [8]: 220 pg/mL
IFN-γ (pg/ml) mean [8]: 1425 pg/mL
IFN-α (pg/ml) mean [9]: 67 pg/mL
IFN-γ (pg/ml) mean [9]: 161 pg/mL
IFN-α (pg/ml) mean [10]: 268 pg/mL
IFN-γ (pg/ml) mean [10]: 621 pg/mL
IFN-α (pg/ml) mean [11]: 32 pg/mL
IFN-γ (pg/ml) mean [11]: 191 pg/mL
IFN-α mean [12]: 16
IFN-γ mean [12]: 45
IFN-α (pg/ml) mean [13]: 132 pg/mL
IFN-γ (pg/ml) mean [13]: 525 pg/mL
IFN-α (pg/ml) mean [14]: 321 pg/mL
IFN-γ (pg/ml) mean [14]: 375 pg/mL
IFN-α (pg/ml) mean [15]: 50 pg/mL
IFN-γ (pg/ml) mean [15]: 346 pg/mL
IFN-a (pg/ml) mean [16]: 42 pg/mL
IFN-g (pg/ml) mean [16]: 94 pg/mL
IFN-a (pg/ml) mean [17]: 32 pg/mL
IFN-g (pg/ml) mean [17]: 47 pg/mL
IFN-a (pg/ml) ×2 (mean ×2, Table 15): 84 pg/mL
IFN-g (pg/ml) ×4 (mean ×4, Table 15): 378 pg/mL
